Patent US11591292B2, “Preparation of cationic surfactants” (Saudi Arabian Oil Company, priority 2020, dated 2023)

Columns and labels:
Assay type in all cases: physicochemical
[1] = Critical micelle concentration (CMC) in seawater
Text: (§1) The properties of the surfactants in seawater including compatibility, critical micelle concentration (CMC) and the interfacial tension were investigated.

[2] = Compatibility of surfactants in seawater; set-up: key: A = clear; B = phase separation; details: in seawater (total salinity 57,670 ppm)
Text: as §1

[3] = Interfacial tension (IFT) of surfactants in seawater; details: for IFT 500 mg/L: surfactant 500 mg/L; for IFT 1000 mg/L: surfactant 1000 mg/L; for IFT 2000 mg/L: surfactant 2000 mg/L
Text: as §1

| Compound | CMC [1] [mol/L] | Compatibility 25° C. [2] | Compatibility 95° C. [2] | IFT 500 mg/L [3] | IFT 1000 mg/L [3] | IFT 2000 mg/L [3] |
| --- | --- | --- | --- | --- | --- | --- |
| CCCCCCCC/C=C\CCCCCCCCCCCC(=O)NCCC[N+](C)(C)CC(O)CO.[Cl-] (stereo not drawn) [C22APDAC, Erucyl amidopropyl-2,3-dihydroxypropyl ammonium chloride] | 9.58e-06 | A | A | 2.11 × 10^−4 mN/m | 1.21 × 10^−4 mN/m | 1.1 × 10^−3 mN/m |
| CCCCCCCC/C=C\CCCCCCCCCCCC(=O)NCCC[N+](C)(C)CC(O)COC(C)=O.[Cl-] (stereo not drawn) [C22APHAAC, erucyl amidopropyl-2-hydroxy-3-acetoxypropyl ammonium chloride] | 1.09e-05 | A | B | 1.11 mN/m | 4.83 × 10^−3 mN/m | 2.37 × 10^−3 mN/m |
| CCCCCCCC/C=C\CCCCCCCCCCCC(=O)NCCC[N+](C)(C)CC(O)COC(=O)C(F)(F)F.[Cl-] (stereo not drawn) [C22APHFAC, Erucyl amidopropyl-2-hydroxy-3-(2,2,2 trifluoroacetoxy) propyl ammonium chloride] | 1.08e-05 | A | B | 0.31 mN/m | 1.87 × 10^−2 mN/m | 7.12 × 10^−3 mN/m |
| CCCCCCCC/C=C\CCCCCCCCCCCC(=O)NCCC[N+](C)(C)CC(O)COC(=O)CC.[Cl-] (stereo not drawn) [C22APHPAC, Erucyl amidopropyl-2-hydroxy-3-propoionyloxy propyl ammonium chloride] | 1.25e-05 | A | B | 5.7 × 10^−2 mN/m | 7 × 10^−3 mN/m | 4.2 × 10^−2 mN/m |
